assay: Human HepG2 cell viability assay in 384 well format; format: toxicity, cell-based; parameters: dose 125 nL, time 70.5 hour; cytotoxicity at 70.5 h: concentration not given beside the values; settings: HepG2 cells, read-out: Inhibition

Point of comparison: `CN1CCCc2cc(CNC(=O)c3cccnc3O)ccc21`, cytotoxicity at 70.5 h -1.9%. Against it:
- CC(C)C(=O)NC1CCCN(C(=O)c2ccccc2O)C1 (stereo unspecified) — lower, -7.34%
- CC(C)C(=O)NC1CCCN(C(=O)c2cc(Cl)ccc2O)C1 (stereo unspecified) — higher, 15.5%
- COc1ccc(C(=O)N2CCCC(NC(=O)C(C)C)C2)c(O)c1 (stereo unspecified) — higher, 2.73%
- O=C(NCCc1ccccc1F)NCC(O)c1cccc(F)c1 (stereo unspecified) — lower, -7.16%
- CCN(Cc1ccccc1Cl)Cn1nc(C)c2c(C)onc2c1=O — lower, -6.62%
- CCN(Cc1cccc(C)c1)Cn1nc(C)c2c(C)onc2c1=O — lower, -10.8%
- O=C(NCc1cccc(F)c1)NCC(O)c1cccc(F)c1 (stereo unspecified) — higher, 20.3%
- c1ccc(-c2nc(CN3CCOC(Cn4cccn4)C3)co2)cc1 (stereo unspecified) — higher, 4.42%
- Cc1ccc(-c2nc(CN3CCOC(Cn4cccn4)C3)co2)cc1 (stereo unspecified) — lower, -5.71%
- c1csc(-c2nc(CN3CCOC(Cn4cccn4)C3)cs2)c1 (stereo unspecified) — lower, -8.48%
- Cc1cc(C)n(C2CCCN(C(=O)c3cn4cccnc4n3)C2)n1 (stereo unspecified) — lower, -6.47%
- Cc1cccc(N(C)S(=O)(=O)c2cc(C(=O)O)cs2)c1 — higher, 14.1%
- CCOc1cccc2c1OCC(C(=O)NS(=O)(=O)c1ccc(Br)s1)=C2 — higher, 14.6%
- O=C(c1cnc(-c2ccco2)s1)N1CCCCC1Cn1cccn1 (stereo unspecified) — lower, -9.96%
- O=C(c1ccc(Cn2cccc2)cc1)N1CCN(CCO)CC1 — lower, -4.52%
- Cc1nc(C)c(CN2CCOC(CNc3cccnn3)C2)s1 (stereo unspecified) — lower, -5.6%
- Cc1ccc(NC2CCN(C(=O)CCCn3ccnc3C)CC2)nn1 — lower, -7.72%
- CCC(O)CN1CCN(C(=O)c2ccc(Cn3cccc3)cc2)CC1 (stereo unspecified) — lower, -11.6%
- CCc1cnc(CN(C)C2CCN(CCn3cc(C#N)cn3)C2)o1 (stereo unspecified) — higher, 16.4%
- COCc1nc(CN2CCOC(CNc3cccnn3)C2)cs1 (stereo unspecified) — lower, -11.6%
- CCc1nc(CN(C)C2CCN(CCn3cccn3)C2)no1 (stereo unspecified) — lower, -15.3%
- CCOc1ncccc1C(=O)N1CCCC1Cn1cc(C)cn1 (stereo unspecified) — lower, -5.13%
- CN(C)Cc1cccc(C(=O)N2CCCC(n3cncn3)C2)c1 (stereo unspecified) — lower, -12.1%
- CC(=O)N1CCCN(C(=O)c2cnn(-c3ccccc3Cl)c2)CC1 — lower, -17.1%
- Cc1cc(C)n(C2CCCN(C(=O)c3cccc4c3OCO4)C2)n1 (stereo unspecified) — lower, -10.8%
- O=C(Cc1ccc2c(c1)CCO2)N1CCCC1c1noc(C2CC2)n1 (stereo unspecified) — higher, 9.85%
- CN(C)c1ccc(CNC(=O)NCCc2cn3ccccc3n2)cn1 — lower, -3.45%
- CCn1cnnc1CNC(=O)Cc1ccc2c(c1)OCCO2 — lower, -14.5%
- CN(C)C(=O)CN1CCN(C(=O)c2cnn(-c3ccccc3Cl)c2)CC1 — lower, -13.6%
- O=C(c1cnc(-c2cnccn2)s1)N1CCCC(n2cccn2)C1 (stereo unspecified) — lower, -6.04%
- CN1CCN(C(=O)c2cnn(-c3ccccc3Cl)c2)CC1 — lower, -8.29%
- COC(=O)c1cccc(C(=O)N2CCCC(n3cncn3)C2)c1 (stereo unspecified) — lower, -8.97%
- CCc1nc(CN2CCOC(CNc3cccnn3)C2)cs1 (stereo unspecified) — higher, 10.3%
- Cc1nc(CCNC(=O)NCc2cccc(N(C)C)n2)cs1 — lower, -12.8%
- CCc1nccn1C1CCCN(C(=O)c2cncnc2C)C1 (stereo unspecified) — higher, 16%
- CCCn1nc2c(cc1=O)CN(CCN1CCCC1=O)CC2 — lower, -10.7%
- Cc1cc(C)n(CC2CCCN2CC(=O)N(C)CCC#N)n1 (stereo unspecified) — lower, -8.11%
- Cc1cc(C)n(CC2CCCN2CC(=O)N(C)Cc2ccco2)n1 (stereo unspecified) — lower, -8.36%
- FC(F)(F)c1cccc(CNc2nccc(C(F)(F)F)n2)c1 — lower, -3.61%
- O=C(NCCCn1nc2ccccn2c1=O)Nc1ccc(F)cc1F — lower, -8.62%
- Cc1cnn(CC2CN(CC(=O)NCCc3cccs3)CCO2)c1 (stereo unspecified) — lower, -2.04%
- Cc1cccc(-c2noc(CN3CCCC3Cn3cccn3)n2)c1 (stereo unspecified) — higher, 8.86%
- Cc1cnn(CC2CN(CC(=O)N(C)c3nccs3)CCO2)c1 (stereo unspecified) — lower, -2.03%
- Cc1cc(C)n(CCC(=O)N2CCCC(n3cncn3)C2)n1 (stereo unspecified) — higher, 25.8%
- OC(COCc1ccccc1F)CN1CCc2c(ncn2C2CC2)C1 (stereo unspecified) — lower, -2.37%

From ChEMBL document CHEMBL3507680, “University of Dundee, Gates Library screen for HepG2 cell viability”
